ChEMBL document CHEMBL1135085, “Potent P1' biphenylmethyl substituted aggrecanase inhibitors” (Bioorg Med Chem Lett, 2002)

Columns and labels:
[1] = Inhibitory activity against aggrecanase was determined
[2] = biological target: T1, Interstitial collagenase (Homo sapiens, UniProt P03956); test: Binding affinity for interstitial collagenase (MMP-1)
T1 sequence (P03956 whole entry): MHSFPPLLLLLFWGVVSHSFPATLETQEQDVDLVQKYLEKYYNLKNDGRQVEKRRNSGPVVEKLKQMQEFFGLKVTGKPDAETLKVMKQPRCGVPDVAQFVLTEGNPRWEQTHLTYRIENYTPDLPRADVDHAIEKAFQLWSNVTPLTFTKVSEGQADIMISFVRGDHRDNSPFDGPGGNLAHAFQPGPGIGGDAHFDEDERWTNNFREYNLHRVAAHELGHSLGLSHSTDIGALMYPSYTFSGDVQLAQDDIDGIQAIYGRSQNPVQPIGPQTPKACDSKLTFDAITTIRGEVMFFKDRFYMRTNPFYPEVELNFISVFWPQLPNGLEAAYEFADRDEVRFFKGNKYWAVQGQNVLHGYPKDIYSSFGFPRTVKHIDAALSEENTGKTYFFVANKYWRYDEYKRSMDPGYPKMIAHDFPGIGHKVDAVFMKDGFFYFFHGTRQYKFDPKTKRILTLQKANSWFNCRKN

[3] = biological target: 72 kDa type IV collagenase (Homo sapiens, UniProt P08253); test: Binding affinity for human gelatinase A (MMP-2)
[4] = biological target: Matrix metalloproteinase-9 (Homo sapiens, UniProt P14780); test: Binding affinity for human gelatinase B (MMP-9)
Sequence of Matrix metalloproteinase-9 (P14780 whole entry): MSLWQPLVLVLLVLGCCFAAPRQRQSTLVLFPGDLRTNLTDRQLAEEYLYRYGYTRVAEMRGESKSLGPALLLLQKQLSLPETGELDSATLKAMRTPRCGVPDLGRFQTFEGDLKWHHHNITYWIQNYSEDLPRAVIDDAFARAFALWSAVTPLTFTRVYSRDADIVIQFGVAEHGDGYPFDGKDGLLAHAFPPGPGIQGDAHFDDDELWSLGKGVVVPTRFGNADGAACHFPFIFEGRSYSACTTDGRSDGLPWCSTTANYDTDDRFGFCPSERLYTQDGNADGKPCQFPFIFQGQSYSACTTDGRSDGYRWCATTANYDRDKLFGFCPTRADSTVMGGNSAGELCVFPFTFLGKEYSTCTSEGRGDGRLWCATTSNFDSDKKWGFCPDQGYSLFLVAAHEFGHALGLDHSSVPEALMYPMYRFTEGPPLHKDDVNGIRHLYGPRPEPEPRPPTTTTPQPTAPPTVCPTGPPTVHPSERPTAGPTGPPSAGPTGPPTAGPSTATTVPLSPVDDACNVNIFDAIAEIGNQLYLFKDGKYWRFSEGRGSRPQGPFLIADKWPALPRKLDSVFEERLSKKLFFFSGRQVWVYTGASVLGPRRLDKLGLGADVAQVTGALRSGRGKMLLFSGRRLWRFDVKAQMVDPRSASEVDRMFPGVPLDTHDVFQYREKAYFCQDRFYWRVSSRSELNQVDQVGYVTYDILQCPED

Sequence of 72 kDa type IV collagenase (P08253 whole entry): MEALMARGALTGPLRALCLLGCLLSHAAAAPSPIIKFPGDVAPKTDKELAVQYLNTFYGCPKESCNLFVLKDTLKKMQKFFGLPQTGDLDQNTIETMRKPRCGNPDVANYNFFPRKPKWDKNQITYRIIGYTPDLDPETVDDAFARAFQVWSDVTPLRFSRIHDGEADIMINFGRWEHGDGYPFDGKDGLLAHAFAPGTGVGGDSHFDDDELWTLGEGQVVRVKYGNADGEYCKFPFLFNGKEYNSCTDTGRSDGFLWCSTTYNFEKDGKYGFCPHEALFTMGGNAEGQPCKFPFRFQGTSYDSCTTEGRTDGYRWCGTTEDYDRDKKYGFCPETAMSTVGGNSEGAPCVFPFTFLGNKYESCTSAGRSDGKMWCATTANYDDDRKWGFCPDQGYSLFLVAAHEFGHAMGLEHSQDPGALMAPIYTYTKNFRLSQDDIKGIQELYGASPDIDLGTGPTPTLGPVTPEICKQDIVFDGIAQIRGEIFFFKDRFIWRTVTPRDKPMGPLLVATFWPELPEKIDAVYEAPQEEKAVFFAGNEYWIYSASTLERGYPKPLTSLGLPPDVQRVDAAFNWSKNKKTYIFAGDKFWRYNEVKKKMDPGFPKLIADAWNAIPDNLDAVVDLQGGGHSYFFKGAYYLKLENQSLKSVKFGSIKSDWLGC

## O=C(C[C@@H](Cc1ccc(-c2ccccc2Cl)cc1)C(=O)N[C@H]1c2ccccc2C[C@H]1O)NO
[1]
  IC50: 32 nM
[2]
  Ki: > 5000 nM
[3]
  Ki: 27 nM
[4]
  Ki: 150 nM

## O=C(C[C@@H](Cc1ccc(-c2ccc3c(c2)OCO3)cc1)C(=O)N[C@H]1c2ccccc2C[C@H]1O)NO
[1]
  IC50: 1.5 nM
[2]
  Ki: 12800 nM
[3]
  Ki: 43 nM
[4]
  Ki: 309 nM

## Cc1cccc(-c2ccc(C[C@H](CC(=O)NO)C(=O)N[C@H]3c4ccccc4C[C@H]3O)cc2)c1
[1]
  IC50: 11.5 nM
[2]
  Ki: > 5000 nM
[3]
  Ki: 39 nM
[4]
  Ki: 1080 nM

## CC(C)c1cccc(-c2ccc(C[C@H](CC(=O)NO)C(=O)N[C@H]3c4ccccc4C[C@H]3O)cc2)c1
[1]
  IC50: 216 nM

## O=C(C[C@@H](Cc1ccc(-c2ccccc2)cc1)C(=O)N[C@H]1c2ccccc2C[C@H]1O)NO
[1]
  IC50: 9.8 nM
[2]
  Ki: > 5000 nM
[3]
  Ki: < 1 nM
[4]
  Ki: 5.4 nM

## COc1cccc(-c2ccc(C[C@H](CC(=O)NO)C(=O)N[C@H]3c4ccccc4C[C@H]3O)cc2)c1
[1]
  IC50: 3.7 nM
[2]
  Ki: > 5000 nM
[3]
  Ki: < 2.8 nM
[4]
  Ki: 2.8 nM

## O=C(C[C@@H](Cc1ccc(-c2ccccc2-c2nn[nH]n2)cc1)C(=O)N[C@H]1c2ccccc2C[C@H]1O)NO
[1]
  IC50: 239 nM
[2]
  Ki: > 5000 nM
[3]
  Ki: 1130 nM
[4]
  Ki: 277 nM

## O=C(C[C@@H](Cc1cccc(O)c1)C(=O)N[C@H]1c2ccccc2C[C@H]1O)NO
[1]
  IC50: 64 nM

## O=C(C[C@@H](Cc1ccc(-c2ccccc2CO)cc1)C(=O)N[C@H]1c2ccccc2C[C@H]1O)NO
[1]
  IC50: 144 nM
[2]
  Ki: > 5000 nM
[3]
  Ki: 500 nM
[4]
  Ki: > 2000 nM

## Cc1ccccc1-c1ccc(C[C@H](CC(=O)NO)C(=O)N[C@H]2c3ccccc3C[C@H]2O)cc1
[1]
  IC50: 11.6 nM
[2]
  Ki: 4110 nM
[3]
  Ki: < 2.8 nM
[4]
  Ki: 4.2 nM

## O=C(C[C@@H](Cc1ccc(-c2cccc([N+](=O)[O-])c2)cc1)C(=O)N[C@H]1c2ccccc2C[C@H]1O)NO
[1]
  IC50: 5.5 nM

## O=C(C[C@@H](Cc1ccc(-c2cccc(F)c2)cc1)C(=O)N[C@H]1c2ccccc2C[C@H]1O)NO
[1]
  IC50: 2 nM

## COc1ccccc1-c1ccc(C[C@H](CC(=O)NO)C(=O)N[C@H]2c3ccccc3C[C@H]2O)cc1
[1]
  IC50: 3.4 nM

## CS(=O)(=O)Nc1cccc(-c2ccc(C[C@H](CC(=O)NO)C(=O)N[C@H]3c4ccccc4C[C@H]3O)cc2)c1
[1]
  IC50: 1.5 nM
